# Measured values reported in patent US11028136B2, “Tumor antigen peptide” (Sapporo Medical University, priority 2014, dated 2021).
# Columns and labels:
# Format in all cases: cell-based
# CaSki cell line [1] = assay: Stemness gene expression of siRNA-transfected cells; conditions: FIG. 15
# Procedure: (§1) MS751 and CaSki were each transfected with siRNAs for BORIS that had been designed to have the sequences shown in the table below in accordance with the protocol described in the Instructions by the manufacturer for the Lipofectamine RNAiMAX used. Cells were analyzed 48 hours after transfection. Trilencer-27 Universal Scrambled Negative Control siRNA (SR30004, Origene) was used as a negative control.
# CaSki cell line [2] = assay: Cell proliferation of siRNA-transfected cells; conditions: FIG. 14-1(b), 14-2
# Procedure: as §1
# CaSki = assay: Sphere formation capability of siRNA-transfected cells; conditions: FIG. 16-1(a)
# Procedure: (§2) Sphere formation has been reported as being one of the indicators of cancer stem cell markers in cervical cancer. Therefore, a spheroid formation assay using a low adherent cell culture plate was carried out. Cervical cancer cell lines (CaSki, TCS, MS751, SKG-IIIb, ME-180, and SiHa) were cultured using a multi well plate having an ultra low adherent surface (Ultra Low Attachment 6-well plate, Corning). Adherent cultured cells were peeled off with a solution containing 0.25% trypsin in 2 mM EDTA, and were plated on each well at 10^3 cells/well. As a medium, one prepared by adding to a serum-free DMEM/F-12 medium 20 ng/mL of h-EGF (acquired from R&D systems), 10 ng/mL of b-FGF (acquired from R&D systems), 1% penicillin/streptomycin (acquired from GIBCO), 4 μg/mL of heparin, and a final concentration of 1% of N2 supplement (acquired from WAKO) was used, culturing was carried out under normal culturing conditions for 7 days or 14 days, and formation of spheroids of 100 μm or greater was confirmed for all of the cell lines (FIG. 1). […]
# (§3) MS751 and CaSki were each transfected with siRNAs for BORIS that had been designed to have the sequences shown in the table below in accordance with the protocol described in the Instructions by the manufacturer for the Lipofectamine RNAiMAX used. Cells were analyzed 48 hours after transfection. […]
# MS751 = assay: as above; conditions: FIG. 16-1(b)
# Procedure: as §2, §3
substance,measurement,setting,value
rGrGrArArArUrArCrCrArCrGrArUrGrCrArArArUrUrUrCAT [siRNA2],Stemness gene suppression,CaSki cell line [1],did not occur at all
same,Cell proliferation,CaSki cell line [2],slightly suppressed
same,Sphere formation capability,CaSki,markedly suppressed
same,Sphere formation capability,MS751,markedly suppressed
